Reference: the NIST ThermoML archive (doi:10.1016/j.jct.2011.08.016)
± gives the expanded uncertainty stated by the source.

Assay: xn = mol fraction of the nth substance listed
Details: Liquid, Vibrating tube method

Structure (SMILES): CCCCCCCCCC [decane] + CCCCCCCC
- mass density (313.19 K, 10000 kPa, x2 = 0.5314): 710.43 ± 0.46 kg/m3
- mass density (313.19 K, 10000 kPa, x2 = 0.7736): 703.28 ± 0.46 kg/m3
- mass density (313.19 K, 10990 kPa, x2 = 0.5314): 711.26 ± 0.46 kg/m3
- mass density (313.19 K, 10990 kPa, x2 = 0.7736): 704.16 ± 0.47 kg/m3
- mass density (313.19 K, 12000 kPa, x2 = 0.5314): 712.06 ± 0.47 kg/m3
- mass density (313.19 K, 12000 kPa, x2 = 0.7736): 705 ± 0.47 kg/m3
- mass density (313.19 K, 13000 kPa, x2 = 0.5314): 712.86 ± 0.47 kg/m3
- mass density (313.19 K, 13000 kPa, x2 = 0.7736): 705.81 ± 0.48 kg/m3
- mass density (313.19 K, 14000 kPa, x2 = 0.5314): 713.65 ± 0.48 kg/m3
- mass density (313.19 K, 14000 kPa, x2 = 0.7736): 706.63 ± 0.48 kg/m3
- mass density (313.19 K, 15000 kPa, x2 = 0.5314): 714.44 ± 0.48 kg/m3
- mass density (313.19 K, 15000 kPa, x2 = 0.7736): 707.47 ± 0.49 kg/m3
- mass density (313.19 K, 16000 kPa, x2 = 0.5314): 715.21 ± 0.49 kg/m3
- mass density (313.19 K, 16000 kPa, x2 = 0.7736): 708.28 ± 0.5 kg/m3
- mass density (313.19 K, 17000 kPa, x2 = 0.5314): 715.97 ± 0.5 kg/m3
- mass density (313.19 K, 17000 kPa, x2 = 0.7736): 709.1 ± 0.5 kg/m3
- mass density (313.19 K, 18000 kPa, x2 = 0.5314): 716.73 ± 0.5 kg/m3
- mass density (313.19 K, 18000 kPa, x2 = 0.7736): 709.83 ± 0.51 kg/m3
- mass density (313.19 K, 19000 kPa, x2 = 0.5314): 717.47 ± 0.51 kg/m3
- mass density (313.19 K, 19000 kPa, x2 = 0.7736): 710.61 ± 0.51 kg/m3
- mass density (313.19 K, 20000 kPa, x2 = 0.5314): 718.2 ± 0.51 kg/m3
- mass density (313.19 K, 20000 kPa, x2 = 0.7736): 711.34 ± 0.52 kg/m3
- mass density (313.19 K, 21000 kPa, x2 = 0.5314): 718.89 ± 0.52 kg/m3
- mass density (313.19 K, 21000 kPa, x2 = 0.7736): 712.07 ± 0.53 kg/m3
- mass density (313.19 K, 22000 kPa, x2 = 0.5314): 719.56 ± 0.53 kg/m3
- mass density (313.19 K, 22000 kPa, x2 = 0.7736): 712.79 ± 0.53 kg/m3
- mass density (313.19 K, 23000 kPa, x2 = 0.5314): 720.23 ± 0.53 kg/m3
- mass density (313.19 K, 23000 kPa, x2 = 0.7736): 713.47 ± 0.54 kg/m3
- mass density (313.19 K, 24000 kPa, x2 = 0.5314): 720.88 ± 0.54 kg/m3
- mass density (313.19 K, 24000 kPa, x2 = 0.7736): 714.14 ± 0.55 kg/m3
- mass density (313.19 K, 25000 kPa, x2 = 0.5314): 721.52 ± 0.54 kg/m3
- mass density (313.19 K, 25000 kPa, x2 = 0.7736): 714.77 ± 0.55 kg/m3
- mass density (323.13 K, 1000 kPa, x2 = 0.2801): 701.5 ± 0.41 kg/m3
- mass density (323.13 K, 2000 kPa, x2 = 0.2801): 702.42 ± 0.42 kg/m3
- mass density (323.13 K, 3000 kPa, x2 = 0.2801): 703.33 ± 0.42 kg/m3
- mass density (323.13 K, 4000 kPa, x2 = 0.2801): 704.26 ± 0.43 kg/m3
- mass density (323.13 K, 5000 kPa, x2 = 0.2801): 705.16 ± 0.43 kg/m3
- mass density (323.13 K, 6000 kPa, x2 = 0.2801): 706.06 ± 0.43 kg/m3
- mass density (323.13 K, 7000 kPa, x2 = 0.2801): 706.95 ± 0.44 kg/m3
- mass density (323.13 K, 8000 kPa, x2 = 0.2801): 707.83 ± 0.44 kg/m3
- mass density (323.13 K, 9000 kPa, x2 = 0.2801): 708.7 ± 0.45 kg/m3
- mass density (323.13 K, 10000 kPa, x2 = 0.2801): 709.57 ± 0.45 kg/m3
- mass density (323.13 K, 10990 kPa, x2 = 0.2801): 710.5 ± 0.46 kg/m3
- mass density (323.13 K, 12000 kPa, x2 = 0.2801): 711.29 ± 0.47 kg/m3
- mass density (323.13 K, 13000 kPa, x2 = 0.2801): 712.12 ± 0.47 kg/m3
- mass density (323.13 K, 14000 kPa, x2 = 0.2801): 712.97 ± 0.48 kg/m3
- mass density (323.13 K, 15000 kPa, x2 = 0.2801): 713.78 ± 0.48 kg/m3
- mass density (323.13 K, 16000 kPa, x2 = 0.2801): 714.58 ± 0.49 kg/m3
- mass density (323.13 K, 17000 kPa, x2 = 0.2801): 715.38 ± 0.49 kg/m3
- mass density (323.13 K, 18000 kPa, x2 = 0.2801): 716.14 ± 0.5 kg/m3
- mass density (323.13 K, 19000 kPa, x2 = 0.2801): 716.9 ± 0.51 kg/m3
- mass density (323.13 K, 20000 kPa, x2 = 0.2801): 717.66 ± 0.51 kg/m3
- mass density (323.13 K, 21000 kPa, x2 = 0.2801): 718.38 ± 0.52 kg/m3
- mass density (323.13 K, 22000 kPa, x2 = 0.2801): 719.06 ± 0.52 kg/m3
- mass density (323.13 K, 23000 kPa, x2 = 0.2801): 719.71 ± 0.53 kg/m3
- mass density (323.13 K, 24000 kPa, x2 = 0.2801): 720.38 ± 0.54 kg/m3
- mass density (323.13 K, 25000 kPa, x2 = 0.2801): 721 ± 0.54 kg/m3
- mass density (323.15 K, 1000 kPa, x2 = 0.5314): 694.85 ± 0.42 kg/m3
- mass density (323.15 K, 1000 kPa, x2 = 0.7736): 687.38 ± 0.42 kg/m3
- mass density (323.15 K, 1000 kPa, x2 = 0.9623): 680.8 ± 0.42 kg/m3
- mass density (323.15 K, 2000 kPa, x2 = 0.5314): 695.78 ± 0.42 kg/m3
- mass density (323.15 K, 2000 kPa, x2 = 0.7736): 688.41 ± 0.42 kg/m3
- mass density (323.15 K, 2000 kPa, x2 = 0.9623): 681.8 ± 0.43 kg/m3
- mass density (323.15 K, 3000 kPa, x2 = 0.5314): 696.73 ± 0.42 kg/m3
- mass density (323.15 K, 3000 kPa, x2 = 0.7736): 689.33 ± 0.43 kg/m3
- mass density (323.15 K, 3000 kPa, x2 = 0.9623): 682.74 ± 0.43 kg/m3
- mass density (323.15 K, 4000 kPa, x2 = 0.5314): 697.62 ± 0.43 kg/m3
- mass density (323.15 K, 4000 kPa, x2 = 0.7736): 690.27 ± 0.43 kg/m3
- mass density (323.15 K, 4000 kPa, x2 = 0.9623): 683.68 ± 0.43 kg/m3
- mass density (323.15 K, 5000 kPa, x2 = 0.5314): 698.58 ± 0.43 kg/m3
- mass density (323.15 K, 5000 kPa, x2 = 0.7736): 691.21 ± 0.44 kg/m3
- mass density (323.15 K, 5000 kPa, x2 = 0.9623): 684.65 ± 0.44 kg/m3
- mass density (323.15 K, 6000 kPa, x2 = 0.5314): 699.53 ± 0.44 kg/m3
- mass density (323.15 K, 6000 kPa, x2 = 0.7736): 692.18 ± 0.44 kg/m3
- mass density (323.15 K, 6000 kPa, x2 = 0.9623): 685.6 ± 0.45 kg/m3
- mass density (323.15 K, 7000 kPa, x2 = 0.5314): 700.45 ± 0.44 kg/m3
- mass density (323.15 K, 7000 kPa, x2 = 0.7736): 693.12 ± 0.45 kg/m3
- mass density (323.15 K, 7000 kPa, x2 = 0.9623): 686.57 ± 0.45 kg/m3
- mass density (323.15 K, 8000 kPa, x2 = 0.5314): 701.36 ± 0.45 kg/m3
- mass density (323.15 K, 8000 kPa, x2 = 0.7736): 694.08 ± 0.45 kg/m3
- mass density (323.15 K, 8000 kPa, x2 = 0.9623): 687.54 ± 0.46 kg/m3
- mass density (323.15 K, 9000 kPa, x2 = 0.5314): 702.24 ± 0.45 kg/m3
- mass density (323.15 K, 9000 kPa, x2 = 0.7736): 694.99 ± 0.46 kg/m3
- mass density (323.15 K, 9000 kPa, x2 = 0.9623): 688.5 ± 0.46 kg/m3
- mass density (323.15 K, 10000 kPa, x2 = 0.5314): 703.12 ± 0.46 kg/m3
- mass density (323.15 K, 10000 kPa, x2 = 0.7736): 695.89 ± 0.46 kg/m3
- mass density (323.15 K, 10000 kPa, x2 = 0.9623): 689.46 ± 0.47 kg/m3
- mass density (323.15 K, 10990 kPa, x2 = 0.5314): 703.99 ± 0.46 kg/m3
- mass density (323.15 K, 10990 kPa, x2 = 0.7736): 696.8 ± 0.47 kg/m3
- mass density (323.15 K, 10990 kPa, x2 = 0.9623): 690.4 ± 0.47 kg/m3
- mass density (323.15 K, 12000 kPa, x2 = 0.5314): 704.86 ± 0.47 kg/m3
- mass density (323.15 K, 12000 kPa, x2 = 0.7736): 697.73 ± 0.48 kg/m3
- mass density (323.15 K, 12000 kPa, x2 = 0.9623): 691.34 ± 0.48 kg/m3
- mass density (323.15 K, 13000 kPa, x2 = 0.5314): 705.72 ± 0.48 kg/m3
